“Also recorded” adds a separate entry of the source. Bridge positions count the residues as written; N and C are the ends. Peptide text beside a SMILES is read from it.
Tests used:
[1] = system: DU145 cells; assay: MTT cell viability assay, DU145 cells; type: cell-based
Description: (§1) The human esophageal squamous carcinoma cell line KYSE-150 was provided by Dr. Chung S. Yang (Rutgers University, Piscataway, NJ)[41, 42]. DU145, LNCaP, PC-3, K562, U87 and MDA-MB-231 cells were purchased from American Type Culture Collection and cultured with designated medium, supplemented with 10% fetal bovine serum, 100 unit/ml penicillin, and 100 μg/ml streptomycin. Cell viability was determined by MTT assay. Cells were plated at 1,000-1,500 cells per well in a 96-well plate and then treated with indicated amounts of ATAP peptides for 48 hours. Then, 20 μl (5 mg/ml in PBS) MTT [3-(4,5-dimethylthiazol-2-yl)-2,5-diphenyltetrazolium bromide] (Sigma Chemical Co., St. Louis, Mo.) was added to each well. After another 4 hours, 150 μL DMSO was added to dissolve formazan crystals in each well, and the absorbance were recorded at 570 nm.

[2] = Precipitation / aggregation of peptide in cell culture medium; type: physicochemical; conditions: for Precipitation in normal culture medium: 200 μM peptide added to DU145 cells in normal culture medium, 37 °C, 24 hours incubation, microscopy
[3] = system: kidney, heart, liver, lung and spleen; assay: H&E organ pathology in xenograft nude mice; type: in vivo, NCR nude mice; conditions: xenograft nude mice after peptide treatment, vs control
Description: (§2) Handling of animals was performed in accordance with protocols approved by the Institutional Animal Care and Use Committee (IACUC) of the Ohio State University. Five week-old NCR nude mice (Taconic Farms, Germantown, NY) were implanted subcutaneously in both flanks with 2 ×10^6 DU145 or PC-3 cells. After tumors reached 4 to 7 mm in diameter (about 9~14 days after implantation), the mice were randomly divided into two groups so that both the mean and the variance of the tumor diameters are of no significant difference among the groups prior to treatment. The ATAP-iRGD-M8 peptide was injected through tail vein once every two days during the whole procedure. Tumor volume was measured by a digital caliper (Thermo Fisher Scientific, Waltham, MA). Tumor volume was determined from the orthogonal dimensions (length, width) using the formula: tumor volume = 1/2(length × width^2). According to the IACUC guideline, the experiments will be terminated when tumors reached 1.5 cm in diameter. At the end of experiment, mice were sacrificed and xenografts were removed and weighted. For toxicological evaluation of peptide treatments, mouse body weights were measured every four days. […]

[4] = system: DU145 cells; assay: Live-cell confocal imaging of peptide uptake and mitochondria localization; type: cell-based; conditions: 2 μM Dylight488-labeled peptide, Mito Tracker Red, 50 μM Q-VD-OPh, confocal microscopy
Description: ATAP-iRGD and ATAP-iRGD-M8 peptides were labeled with an amine-reactive DyLight488 fluorophore (Pierce Biotechnology, Rockford, USA) according to the manufacturer's instructions. DU145 cells were cultured in the presence of 2 μM Dylight488-labeled ATAP-iRGD or ATAP-iRGD-M8 plus 50 nM Mito Tracker Red (Molecular Probes Inc., Eugene, OR). 50 μM Q-VD-OPh was added to the culture medium in order to prevent cell apoptosis. Sample images were taken by BioRad 2100 Radiance laser scanning confocal microscope (Bio-Rad Laboratories, Hercules, CA) with a 60×, 1.3NA oil immersion objective (Nikon Instruments Inc., Melville, NY).

[5] = system: PC-3 xenograft; assay: PC-3 xenograft in nude mice; type: in vivo, NCR nude mice; conditions: tail vein injection once every two days
Description: as §2

[6] = system: DU145 xenograft; assay: DU145 xenograft in nude mice; type: in vivo, NCR nude mice
Description: as §2

[7] = system: U87 glioblastoma cells; type: cell-based; conditions: 48 h
Description: as §1

[8] = system: PC-3 cells; type: cell-based; conditions: 48 h
Description: as §1

[9] = system: LNCaP cells; type: cell-based; conditions: 48 h
Description: as §1

[10] = system: MDA-MB-231 breast adenocarcinoma cells; type: cell-based; conditions: 48 h
Description: as §1

[11] = system: K562 cells; type: cell-based, human; conditions: 48 h
Description: as §1

[12] = system: KYSE-150 esophageal squamous carcinoma cells; type: cell-based, human; conditions: 48 h
Description: as §1

[13] = system: SV129 mice; assay: Repetitive intravenous injection toxicity in SV129 mice; type: in vivo
Description: For further evaluation of the in vivo toxic effect of ATAP-iRGD, repetitive injections of ATAP-iRGD into the immune intact SV129 mice were conducted.

Which “Cytotoxic activity in DU145 cells, in words” value ([1]; MTT assay, 48 hours, unconjugated ATAP tested at 0.01 – 100 μM) does the source give for `CC[C@H](C)[C@H](NC(=O)[C@H](CCCCN)NC(=O)CNC(=O)[C@@H](NC(=O)[C@@H](NC(=O)[C@H](CCC(=O)O)NC(=O)[C@H](CC(C)C)NC(=O)[C@H](Cc1ccccc1)NC(=O)[C@@H](NC(=O)[C@H](CCSC)NC(=O)[C@H](Cc1c[nH]c2ccccc12)NC(=O)CNC(=O)[C@H](CO)NC(=O)[C@H](CCCCN)NC(=O)[C@@H]1CCCN1C(=O)[C@H](CCC(=O)O)NC(=O)[C@H](Cc1ccccc1)NC(=O)[C@@H](N)CCCCN)[C@@H](C)O)C(C)C)[C@@H](C)O)C(=O)N[C@@H](C)C(=O)N[C@@H](CCC(=O)O)C(=O)N[C@@H](CCSC)C(=O)N[C@@H](CC(C)C)C(=O)N[C@@H](CO)C(=O)N[C@@H](CC(C)C)C(=O)N[C@@H](CC(C)C)C(=O)N[C@@H](CC(C)C)C(=O)N[C@@H](CCC(N)=O)C(=O)N[C@@H](Cc1ccc(O)cc1)C(=O)N[C@H]1CSSC[C@@H](C(=O)O)NC(=O)[C@H](CC(=O)O)NC(=O)[C@@H]2CCCN2C(=O)CNC(=O)[C@H](CCCCN)NC(=O)[C@H](CC(=O)O)NC(=O)CNC(=O)[C@H](CCCNC(=N)N)NC1=O` [Mutant M4] (H-KFEPKSGWMTFLEVTGKIAEMLSLLLQYCRGDKGPDC-OH; disulfide 29-37) here?
The value was “complete abolishment of the cytotoxic activity”.

For “Ac-KFEPKSGWMTFLEVTGKIAEMLSLLKQYCRGDKGPDC-NH2 (disulfide 29-37 (inferred)) [Mutant M7, ATAP-iRGD with acetylated amino terminus and amidated carboxyl terminus]”, which “Precipitation in normal culture medium” value [2] is on record?
Its value is “precipitate; also recorded: pronounced precipitation”.

For “Ac-KKFEPKSGWMTFLEVTGKIAEMLSLLKQYCRGDKGPDC-NH2 (disulfide 30-38 (inferred)) [ATAP-iRGD-M8, ATAP-iRGD with one more Lys, acetylated and amidated termini]”, which “Precipitation in normal culture medium” value [2] is on record?
Its value is “no precipitation”.

And the “Concentration at which no precipitation was observed” value ([2]; normal cell culture medium, neutral pH, prolonged incubation)?
The value was “above 200 μM”.

What about the “H&E pathology of kidney, heart, liver, lung and spleen” value [3] of the same compound?
Its value is “no obvious changes”.

And the “Cell uptake and mitochondria localization” value [4]?
Its value is “clear mitochondria target pattern”.

What about the “PC-3 xenograft tumor growth vs saline” value [5] of the same compound?
The value was “significant suppression of tumor growth”.

What about the “DU145 xenograft volume vs saline” value ([6]; 21 mg/kg via tail vein once every two days, n=6 treated, n=9 saline) of the same compound?
Its value is “significantly smaller”.

And the “DU-145 xenograft weight at end of experiment” value ([6]; xenografts dissected and weighted, mean±SEM, P<0.05 (Fig. S2))?
The value was “significantly suppressed DU-145 tumor growth”.

Which IC50 [7] does the source give for `CC[C@H](C)[C@H](NC(=O)[C@H](CCCCN)NC(=O)CNC(=O)[C@@H](NC(=O)[C@@H](NC(=O)[C@H](CCC(=O)O)NC(=O)[C@H](CC(C)C)NC(=O)[C@H](Cc1ccccc1)NC(=O)[C@@H](NC(=O)[C@H](CCSC)NC(=O)[C@H](Cc1c[nH]c2ccccc12)NC(=O)CNC(=O)[C@H](CO)NC(=O)[C@H](CCCCN)NC(=O)[C@@H]1CCCN1C(=O)[C@H](CCC(=O)O)NC(=O)[C@H](Cc1ccccc1)NC(=O)[C@@H](N)CCCCN)[C@@H](C)O)C(C)C)[C@@H](C)O)C(=O)N[C@@H](C)C(=O)N[C@@H](CCC(=O)O)C(=O)N[C@@H](CCSC)C(=O)N[C@@H](CC(C)C)C(=O)N[C@@H](CO)C(=O)N[C@@H](CC(C)C)C(=O)N[C@@H](CC(C)C)C(=O)N[C@@H](CCCCN)C(=O)N[C@@H](CCC(N)=O)C(=O)N[C@@H](Cc1ccc(O)cc1)C(=O)N[C@H]1CSSC[C@@H](C(=O)O)NC(=O)[C@H](CC(=O)O)NC(=O)[C@@H]2CCCN2C(=O)CNC(=O)[C@H](CCCCN)NC(=O)[C@H](CC(=O)O)NC(=O)CNC(=O)[C@H](CCCNC(=N)N)NC1=O` [ATAP-iRGD] (H-KFEPKSGWMTFLEVTGKIAEMLSLLKQYCRGDKGPDC-OH; disulfide 29-37) here?
The IC50 was 10.3 ± 2.6 µM.

And the IC50 [8]?
Its IC50 is 9.2 ± 1.6 µM.

And the IC50 [9]?
The IC50 was 7.1 ± 1.7 µM.

And the IC50 [10]?
The IC50 was 5.9 ± 1.1 µM.

And the IC50 [11]?
Its IC50 is 107 ± 41 µM.

What about the IC50 [12] of the same compound?
Its IC50 is 4.4 ± 0.5 µM.

And the IC50 ([1]; 48 h)?
The IC50 was 1.6 ± 0.5 µM.

What about the “Signs of toxicity on repetitive injection” value ([13]; immune intact SV129 mice, repetitive intravenous injections) of the same compound?
Its value is “no visible signs or symptoms of toxicity”.

And the “H&E pathology of kidney, heart, liver, lung and spleen” value ([13]; mouse, in vivo, iv)?
The value was “no significant pathological abnormalities”.

Reference: PMC4202157, “Amphipathic tail-anchoring peptide is a promising therapeutic agent for prostate cancer treatment” (Oncotarget, 2014)
